Laboratory results taken from patent publication US9926293B2, “Multivalent RAS binding compounds” (THE TRUSTEES OF COLUMBIA UNIVERSITY IN THE CITY OF NEW YORK, priority 2014, dated 2018).

What was measured:
[1] = target: T1, KRAS^G12D D38A (Homo sapiens, UniProt P01116, D38A/G12D); assay: Microscale thermophoresis on binding-site mutant KRAS^G12D D38A; details: for Kd: MST
T1 construct: His6 (N); made in house
Procedure: (§1) Mutagenesis of the KRAS^G12D plasmid was performed using a QuikChange XL site-directed mutagenesis kit from Agilent technologies, according to the manufacturer's protocol. Primers were designed using the Agilent QuikChange Primer Design application and purchased from Integrated DNA Technologies. KRAS^G12D D38A forward primer 5′ ATATGATCCAACAATAGAGGCTTCCTACAGGAAGCAAGTAG 3′ (SEQ ID NO: 66), KRAS^G12D D38A reverse primer 5′ CTACTTGCTTCCTGTAGGAAGCCTCTATTGTTGGATCATAT 3′ (SEQ ID NO: 67), KRAS^G12D I36N forward primer 5′ CATTTTGTGGACGAATATGATCCAACAAATGAGGATTCCTACAGG 3′ (SEQ ID NO: 68), KRAS^G12D I36N reverse primer 5′ CCTGTAGGAATCCTCATTTGTTGGATCATATTCGTCCACAAAATG 3′ (SEQ ID NO: 69). DNA sequencing was performed to confirm the correct amino acid sequence of the construct (GeneWiz, Inc.).
(§2) KRAS^G12D (250 μM) in 25 mM HEPES, 100 mM sodium chloride, 2 mM TCEP with 20 mM EDTA and 1 mM GppNHp was shaken at 220 rpm at 30° C. to remove the endogenous nucleotide, The solution was placed on ice for 2 minutes prior to the addition of 65 mM MgCl2. After an additional 10 minutes incubation on ice, 200 uL of a 10 uM solution of KRAS^G12D was combined with 200 uL of a 20 uM solution of NT-647-NHS-ester dye (from a 652.4 μM stock). The protein/dye mixture was rotated at 4° C. for 30 minutes, before being separated from the excess dye and buffer exchanged into 25 mM Tris, 100 mM sodium chloride, 2 mM TCEP, and 5 mM MgCl2 via a nap-5 column. The test compounds were arrayed across a 16-point dilution series consisting of 1.5% DMSO with 25 mM Tris, 100 mM NaCl, 2 mM TCEP, 5 mM MgCl2 and 0.05% tween-20. Thermophoretic movement of the fluorescently labeled protein with the inhibitors was performed using a Monolith NT.115 (Nanotemper Technologies). RALA and RHOA were purchased commercially from Abcam (RALA CN:ab102555, RHOA CN:ab101594).
A set of 45 of the closest matches (ranging from 0.85-0.97 Tanimoto coefficient) were synthesized (based on Scheme 2 with appropriate modifications) and tested for their ability to bind to KRAS^G12D by differential scanning fluorimetry.

[2] = target: T2, KRAS^G12D I36N (Homo sapiens, UniProt P01116, G12D/I36N); assay: Microscale thermophoresis on binding-site mutant KRAS^G12D I36N; details: MST
T2 construct: His6 (N); made in house
T2 sequence (P01116 1-169 isoform P01116-2 G12D/I36N): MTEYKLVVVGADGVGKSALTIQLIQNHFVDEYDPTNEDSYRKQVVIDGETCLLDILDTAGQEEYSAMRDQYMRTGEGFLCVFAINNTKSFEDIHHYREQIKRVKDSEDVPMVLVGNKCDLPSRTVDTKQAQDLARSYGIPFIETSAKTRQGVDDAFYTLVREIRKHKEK
Procedure: as §1
as §2, with “CN:ab101594). […]” for “CN:ab101594).”

[3] = test system: A549 (KRAS^G12S); assay: Cell viability assay (384-well, Alamar blue); assay type: cell-based; details: Homo sapiens, Table 8, 48 hours
Procedure: (§3) All cell culture assays were incubated at 37° C., 5% CO2 in media containing Dulbecco's Modified Eagle Medium (DMEM) with 10% fetal bovine serum (FBS) and 1% penicillin-streptomycin (PS). 384-well format for EC50 determination: cells were trypsinized, counted, and seeded into 384-well plates at 1,000 cells/well. After 12-16 hours, compounds (as 50 mM stocks in DMSO) were arrayed in an 8- or 16-point dilution series in 384-well polypropylene plates. Compound solutions were transferred at a 1:5 dilution into the assay plates. After 48 hours, a 50% Alamar blue solution was added to a final concentration of 10% Alamar blue. After 6 hours of incubation, fluorescence intensity was determined using a Victor3 plate reader (Perkin Elmer) with a 535 nm excitation filter and a 590 nm emission filter. All compound measurements were performed in triplicate. For experiments performed in 6-well format, cells were trypsinized, counted, and seeded into 6-well plates at 200,000 cells per well 16 h prior to use. Media was then aspirated and replaced with 2 mL of media containing compounds at the indicated concentrations (from 10 mM stocks in DMSO). After 24 hours, cells were trypsinized and viability was determined using Trypan Blue exclusion assay.

[4] = test system: DLD1 (KRAS^Q61H); assay: Cell viability assay (384-well, Alamar blue); assay type: cell-based; details: Homo sapiens, DLD-1, Table 8, 48 hours
Procedure: as §3

[5] = test system: H23 (KRAS^G12C); assay: Cell viability assay (384-well, Alamar blue); assay type: cell-based; details: Table 8, 48 hours
Procedure: as §3

[6] = test system: H358 (KRAS^G12C); assay: Cell viability assay (384-well, Alamar blue); assay type: cell-based; details: Homo sapiens, NCI-H358, Table 8, 48 hours
Procedure: as §3

[7] = test system: H441 (KRAS^G12V); assay: Cell viability assay (384-well, Alamar blue); assay type: cell-based; details: Homo sapiens, NCI-H441, Table 8, 48 hours
Procedure: as §3

[8] = test system: H460 (KRAS^Q61H); assay: Cell viability assay (384-well, Alamar blue); assay type: cell-based; details: Homo sapiens, NCI-H460, Table 8, 48 hours
Procedure: as §3

[9] = test system: SW480 (KRAS^G12V); assay: Multicellular tumor spheroids in low adherence plates; assay type: cell-based; details: 72 hours
Procedure: Multicellular Tumor Spheroids
Multicellular tumor spheroids (MCTSs) were grown in 96-well Corningware Ultra Low Attachment (ULA) Plates (CLS 3474). 100 μL of cell suspension containing 2×10^4 cells/ml were added to each well of the ULA plate containing 100 μL of a 2× solution of the desired concentration of compounds. Cells were incubated at 37° C., 5% CO2 for 72 hours to allow for MCTS formation. After 72 hours, 50 μL of a 50% solution of Alamar blue and medium was added and incubated for 12 hours prior to measurements on a Victor3 plate reader as previously described.

[10] = test system: active GTP-bound RALA in BJeLR cells; assay: RALA activation assay using RALBP1; assay type: cell-based; details: 2% FBS
Procedure: BJeLR cells were seeded 16 hours prior to use in 2% FBS in DMEM. […] After 6 hours cells were washed twice with ice cold buffer (25 mM tris, 100 mM NaCl, 1 mM TCEP, 5 mM MgCl2, 0.1% tween-20 and 1 protease inhibitor/25 mL). Cells were scrapped, pelleted at 13,000 rpm for 10 minutes at 4° C., then passed through a 26 gauge needle several times. The solution was spun down a second time at 13,000 rpm for 15 minutes at 4° C., to remove unlysed cells and debris. RALBP1 agarose beads (EMD Millipore) were then added to the lysate and the solution was rotated at 4° C. for 2 hours. The solutions were spun down at 1500×g for 2 minutes and the supernatant was removed by syringe. The beads were washed twice by this process with buffer, then resuspended in 2.5×SDS.

T1 sequence (P01116 1-169 isoform P01116-2 G12D/D38A): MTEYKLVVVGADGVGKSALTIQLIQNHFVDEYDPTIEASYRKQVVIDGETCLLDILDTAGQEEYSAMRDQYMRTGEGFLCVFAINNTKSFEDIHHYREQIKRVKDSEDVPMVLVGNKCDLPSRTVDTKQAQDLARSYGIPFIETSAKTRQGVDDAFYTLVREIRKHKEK

NC1(C(=O)NCCCn2cc(-c3ccc(OC(F)(F)F)cc3)c3cc(CN4CCN(Cc5c(Cl)cccc5Cl)CC4)ccc32)CCNCC1 [Compound 31MEW44, 4-amino-N-(3-(5-((4-(2,6-dichlorobenzyl)piperazin-1-yl)methyl)-3-(4-(trifluoromethoxy)phenyl)-1H-indol-1-yl)propyl)piperidine-4-carboxamide]
loss in binding affinity ([1]; I36N and D38A mutants vs KRAS^G12D): 3.5 to 21 fold
Kd ([1]; 31MEW44, FIG. 14H): 33 µM
Kd ([1]; 31MEW44, first experiment): 1.9 µM
loss in binding affinity ([1]; binding-site mutants D38A and I36N): 5-10 fold
Kd ([2]; 31MEW44, FIG. 14H): 200 µM
Kd ([2]; 31MEW44, first experiment): 1.1 µM
EC50 [3]: 4.8 µM
EC50 [4]: 8.8 µM
EC50 [5]: 2.4 µM
EC50 [6]: 2.8 µM
EC50 [7]: 4.9 µM
EC50 [8]: 4.9 µM
size of multicellular tumor spheroids [9]: decreased in size in a dose-dependent manner
active GTP-bound RALA [10]: decreased levels of active GTP-bound RALA
